Laboratory results published in ChEMBL document CHEMBL1201861, “Genomics of Drug Sensitity in Cancer screening data, Wellcome Trust Sanger Institute”.

How the values were obtained:
Experiment in all cases: cells
[1] = system: ChaGo-K-1; type: functional, cell-based; settings: Homo sapiens;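 note: growth inhibition of ChaGo-K-1 cells, read out with a cell viability assay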
Description: SANGER: Inhibition of human ChaGo-K-1 cell growth in a cell viability assay.

[2] = system: D-247MG; type: functional, cell-based, Homo sapiens; settings: Homo sapiens, D-247MG
Description: SANGER: Inhibition of human D-247MG cell growth in a cell viability assay.

[3] = system: DBTRG-05MG; type: functional, cell-based, Homo sapiens; settings: Homo sapiens, DBTRG-05MG;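 note: cell viability assay measuring growth inhibition of human DBTRG-05MG cells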
Description: SANGER: Inhibition of human DBTRG-05MG cell growth in a cell viability assay.

[4] = system: DJM-1; type: functional, cell-based, Homo sapiens; settings: Homo sapiens, DJM-1;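 note: growth inhibition of human DJM-1 cells, read out by a cell viability assay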
Description: SANGER: Inhibition of human DJM-1 cell growth in a cell viability assay.

[5] = system: DK-MG; type: functional, cell-based, Homo sapiens; settings: Homo sapiens, DK-MG;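 note: growth inhibition of DK-MG cells, read out with a cell viability assay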
Description: SANGER: Inhibition of human DK-MG cell growth in a cell viability assay.

[6] = system: GAK; type: functional, cell-based, Homo sapiens; settings: Homo sapiens, GAK;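 note: cell growth inhibition read out by a cell viability assay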
Description: SANGER: Inhibition of human GAK cell growth in a cell viability assay.

[7] = system: GAMG; type: functional, cell-based, Homo sapiens; settings: Homo sapiens, GAMG;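 note: cell growth inhibition measured by a viability assay in the GAMG human cell line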
Description: SANGER: Inhibition of human GAMG cell growth in a cell viability assay.

[8] = system: GB-1; type: functional, cell-based, Homo sapiens; settings: Homo sapiens, GB-1;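 note: growth of GB-1 cells judged by a viability assay, IC50 marks the concentration inhibiting growth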
Description: SANGER: Inhibition of human GB-1 cell growth in a cell viability assay.

[9] = system: GCT; type: functional, cell-based, Homo sapiens; settings: Homo sapiens, GCT;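 note: GCT cell line proliferation inhibition, read out with a cell viability assay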
Description: SANGER: Inhibition of human GCT cell growth in a cell viability assay.

[10] = system: HC-1; type: functional, cell-based; settings: Homo sapiens;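 note: growth inhibition of HC-1 cells measured by a cell viability assay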
Description: SANGER: Inhibition of human HC-1 cell growth in a cell viability assay.

[11] = system: HCE-4; type: functional, cell-based, Homo sapiens; settings: Homo sapiens, HCE-4;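 note: cell viability assay measuring inhibition of growth in the human HCE-4 cell line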
Description: SANGER: Inhibition of human HCE-4 cell growth in a cell viability assay.

[12] = system: HOS; type: functional, cell-based, Homo sapiens; settings: Homo sapiens, HOS;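 note: growth inhibition of human HOS cells, read out with a cell viability assay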
Description: SANGER: Inhibition of human HOS cell growth in a cell viability assay.

[13] = system: HuP-T4; type: functional, cell-based, Homo sapiens; settings: Homo sapiens, HuP-T4;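 note: cell viability assay measuring how much HuP-T4 cell growth is inhibited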
Description: SANGER: Inhibition of human HuP-T4 cell growth in a cell viability assay.

[14] = system: J82; type: functional, cell-based; settings: Homo sapiens;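 note: growth inhibition of J82 cells, read out with a cell viability assay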
Description: SANGER: Inhibition of human J82 cell growth in a cell viability assay.

[15] = system: JVM-3; type: functional, cell-based; settings: Homo sapiens;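 note: growth inhibition of human JVM-3 cells, read out with a cell viability assay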
Description: SANGER: Inhibition of human JVM-3 cell growth in a cell viability assay.

[16] = system: KARPAS-299; type: functional, cell-based; settings: Homo sapiens
Description: SANGER: Inhibition of human KARPAS-299 cell growth in a cell viability assay.

[17] = system: KGN; type: functional, cell-based, Homo sapiens; settings: Homo sapiens, KGN;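 note: growth inhibition of KGN cells, read out with a cell viability assay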
Description: SANGER: Inhibition of human KGN cell growth in a cell viability assay.

[18] = system: KM-H2; type: functional, cell-based; settings: Homo sapiens;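 note: growth inhibition of KM-H2 cells, read out by a cell viability assay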
Description: SANGER: Inhibition of human KM-H2 cell growth in a cell viability assay.

[19] = system: KMOE-2; type: functional, cell-based; settings: Homo sapiens;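 note: growth inhibition of human KMOE-2 cells, read out with a cell viability assay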
Description: SANGER: Inhibition of human KMOE-2 cell growth in a cell viability assay.

[20] = system: KYSE-410; type: functional, cell-based, Homo sapiens; settings: Homo sapiens, KYSE-410;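 note: growth inhibition of KYSE-410 cells, measured through a cell viability readout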
Description: SANGER: Inhibition of human KYSE-410 cell growth in a cell viability assay.

[21] = system: L-363; type: functional, cell-based; settings: Homo sapiens
Description: SANGER: Inhibition of human L-363 cell growth in a cell viability assay.

[22] = system: LB2241-RCC; type: functional, cell-based, Homo sapiens; settings: Homo sapiens, LB2241-RCC;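 note: cell viability assay measuring how strongly the cultured human renal carcinoma line is prevented from growing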
Description: SANGER: Inhibition of human LB2241-RCC cell growth in a cell viability assay.

[23] = system: LB373-MEL-D; type: functional, cell-based, Homo sapiens; settings: Homo sapiens, LB373-MEL-D;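 note: growth inhibition of the cell line, read out in a cell viability assay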
Description: SANGER: Inhibition of human LB373-MEL-D cell growth in a cell viability assay.

[24] = system: LCLC-97TM1; type: functional, cell-based, Homo sapiens; settings: Homo sapiens, LCLC-97TM1;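 note: cell viability assay measuring growth inhibition of human LCLC-97TM1 cells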
Description: SANGER: Inhibition of human LCLC-97TM1 cell growth in a cell viability assay.

[25] = system: LOX IMVI; type: functional, cell-based; settings: Homo sapiens
Description: SANGER: Inhibition of human LOXIMVI cell growth in a cell viability assay.

[26] = system: MDA-MB-453; type: functional, cell-based, Homo sapiens; settings: Homo sapiens, MDA-MB-453
Description: SANGER: Inhibition of human MDA-MB-453 cell growth in a cell viability assay.

[27] = system: MFM-223; type: functional, cell-based, Homo sapiens; settings: Homo sapiens, MFM-223
Description: SANGER: Inhibition of human MFM-223 cell growth in a cell viability assay.

[28] = system: ML-2; type: functional, cell-based; settings: Homo sapiens;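 note: growth inhibition of ML-2 cells, measured with a cell viability readout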
Description: SANGER: Inhibition of human ML-2 cell growth in a cell viability assay.

[29] = system: MMAC-SF; type: functional, cell-based, Homo sapiens; settings: Homo sapiens, MMAC-SF;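 note: growth inhibition of human MMAC-SF cells, read out with a cell viability assay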
Description: SANGER: Inhibition of human MMAC-SF cell growth in a cell viability assay.

[30] = system: MV4-11; type: functional, cell-based, MV-4-11; settings: Homo sapiens;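 note: cell viability readout measuring growth inhibition of human MV-4-11 cells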
Description: SANGER: Inhibition of human MV-4-11 cell growth in a cell viability assay.

[31] = system: NB12; type: functional, cell-based, Homo sapiens; settings: Homo sapiens, NB12;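 note: growth inhibition of human NB12 cells, read out by a cell viability assay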
Description: SANGER: Inhibition of human NB12 cell growth in a cell viability assay.

[32] = system: NCI-H1155; type: functional, cell-based; settings: Homo sapiens;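 note: cell growth inhibition measured by a viability assay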
Description: SANGER: Inhibition of human NCI-H1155 cell growth in a cell viability assay.

[33] = system: NCI-H1648; type: functional, cell-based, Homo sapiens; settings: Homo sapiens, NCI-H1648;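 note: cell viability assay measuring inhibition of NCI-H1648 cell growth, from the Sanger screening data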
Description: SANGER: Inhibition of human NCI-H1648 cell growth in a cell viability assay.

[34] = system: NCI-H1770; type: functional, cell-based; settings: Homo sapiens;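 note: growth inhibition of NCI-H1770 cells determined with a viability readout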
Description: SANGER: Inhibition of human NCI-H1770 cell growth in a cell viability assay.

[35] = system: NCI-H2087; type: functional, cell-based, Homo sapiens; settings: Homo sapiens, NCI-H2087;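 note: growth inhibition determined with a cell viability readout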
Description: SANGER: Inhibition of human NCI-H2087 cell growth in a cell viability assay.

[36] = system: NCI-H209; type: functional, cell-based; settings: Homo sapiens;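 note: growth inhibition of human NCI-H209 cells, measured by a cell viability assay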
Description: SANGER: Inhibition of human NCI-H209 cell growth in a cell viability assay.

[37] = system: NCI-H526; type: functional, cell-based; settings: Homo sapiens;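 note: growth inhibition of the human NCI-H526 cell line, measured by a cell viability assay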
Description: SANGER: Inhibition of human NCI-H526 cell growth in a cell viability assay.

[38] = system: OAW-42; type: functional, cell-based, Homo sapiens; settings: Homo sapiens, OAW-42;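 note: growth inhibition of OAW-42 cells, read out with a cell viability assay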
Description: SANGER: Inhibition of human OAW-42 cell growth in a cell viability assay.

[39] = system: P30-OHK; type: functional, cell-based; settings: Homo sapiens;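 note: growth inhibition of the P30-OHK cell line, read out with a cell viability assay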
Description: SANGER: Inhibition of human P30-OHK cell growth in a cell viability assay.

[40] = system: RS4-11; type: functional, cell-based; settings: Homo sapiens;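 note: growth inhibition of RS4-11 cells, read out by a cell viability assay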
Description: SANGER: Inhibition of human RS4-11 cell growth in a cell viability assay.

[41] = system: SCH; type: functional, cell-based, Homo sapiens; settings: Homo sapiens, SCH;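 note: growth inhibition of human SCH cells, read out in a cell viability assay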
Description: SANGER: Inhibition of human SCH cell growth in a cell viability assay.

[42] = system: SF-295; type: functional, cell-based, Homo sapiens; settings: Homo sapiens, SF-295;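 note: growth inhibition of SF-295 cells, read out with a cell viability assay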
Description: SANGER: Inhibition of human SF295 cell growth in a cell viability assay.

[43] = system: SH-4; type: functional, cell-based, Homo sapiens; settings: Homo sapiens, SH-4;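 note: growth inhibition of SH-4 cells, read out with a cell viability assay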
Description: SANGER: Inhibition of human SH-4 cell growth in a cell viability assay.

[44] = system: SK-MEL-1; type: functional, cell-based; settings: Homo sapiens;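 note: growth inhibition of human SK-MEL-1 cells, read out by a cell viability assay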
Description: SANGER: Inhibition of human SK-MEL-1 cell growth in a cell viability assay.

[45] = system: SW1417; type: functional, cell-based, Homo sapiens; settings: Homo sapiens, SW1417;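 note: growth inhibition of human SW1417 cells, read out with a cell viability assay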
Description: SANGER: Inhibition of human SW1417 cell growth in a cell viability assay.

[46] = system: A2780; type: functional, cell-based, Homo sapiens; settings: Homo sapiens, A2780;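 note: growth inhibition of A2780 cells, read out with a cell viability assay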
Description: SANGER: Inhibition of human A2780 cell growth in a cell viability assay.

[47] = system: A-431; type: functional, cell-based, Homo sapiens; settings: Homo sapiens, A-431;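 note: growth inhibition of A-431 cells, determined with a cell viability read-out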
Description: SANGER: Inhibition of human A431 cell growth in a cell viability assay.

[48] = system: ACN; type: functional, cell-based, Homo sapiens; settings: Homo sapiens, ACN;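 note: growth inhibition of the human ACN cell line, read out via cell viability testing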
Description: SANGER: Inhibition of human ACN cell growth in a cell viability assay.

[49] = system: BV-173; type: functional, cell-based; settings: Homo sapiens
Description: SANGER: Inhibition of human BV-173 cell growth in a cell viability assay.

[50] = system: Becker; type: functional, cell-based, Homo sapiens; settings: Homo sapiens, Becker;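 note: growth inhibition of Becker cells, read out with a cell viability assay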
Description: SANGER: Inhibition of human Becker cell growth in a cell viability assay.

[51] = system: CAL-62; type: functional, cell-based, Homo sapiens; settings: Homo sapiens, CAL-62;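 note: growth inhibition of CAL-62 cells, read out with a cell viability assay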
Description: SANGER: Inhibition of human CAL-62 cell growth in a cell viability assay.

[52] = system: CAL-72; type: functional, cell-based, Homo sapiens; settings: Homo sapiens, CAL-72;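 note: cell viability assay measuring inhibition of proliferation in the CAL-72 cell line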
Description: SANGER: Inhibition of human CAL-72 cell growth in a cell viability assay.

[53] = system: TE-10; type: functional, cell-based, Homo sapiens; settings: Homo sapiens, TE-10;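 note: growth inhibition of TE-10 cells, measured by a cell viability assay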
Description: SANGER: Inhibition of human TE-10 cell growth in a cell viability assay.

[54] = system: YAPC; type: functional, cell-based, Homo sapiens; settings: Homo sapiens, YAPC;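 note: growth inhibition of YAPC cells, measured with a cell viability assay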
Description: SANGER: Inhibition of human YAPC cell growth in a cell viability assay.

CCC1=C[C@@H]2CN(C1)Cc1c([nH]c3ccccc13)[C@@](C(=O)OC)(c1cc3c(cc1OC)N(C)[C@H]1[C@@](O)(C(=O)OC)[C@H](OC(C)=O)[C@]4(CC)C=CCN5CC[C@]31[C@@H]54)C2 [VINORELBINE]
IC50 [1]: 6.69 nM | IC50 [2]: 12.6 nM | IC50 [3]: 3.88 nM | IC50 [4]: 15.9 nM | IC50 [5]: > 64 nM | IC50 [6]: > 64 nM | IC50 [7]: 13 nM | IC50 [8]: > 64 nM | IC50 [9]: 50.8 nM | IC50 [10]: 3.89 nM | IC50 [11]: 20.8 nM | IC50 [12]: 3.22 nM | IC50 [13]: 37.3 nM | IC50 [14]: > 64 nM | IC50 [15]: > 64 nM | IC50 [16]: > 64 nM | IC50 [17]: 7.05 nM | IC50 [18]: 9.11 nM | IC50 [19]: > 64 nM | IC50 [20]: 6.21 nM | IC50 [21]: 12.4 nM | IC50 [22]: > 64 nM | IC50 [23]: 46.8 nM | IC50 [24]: 1.56 nM | IC50 [25]: > 64 nM | IC50 [26]: > 64 nM | IC50 [27]: > 64 nM | IC50 [28]: 4.32 nM | IC50 [29]: 20.5 nM | IC50 [30]: 10.4 nM | IC50 [31]: 2.11 nM | IC50 [32]: > 64 nM | IC50 [33]: 3.92 nM | IC50 [34]: 5.53 nM | IC50 [35]: 8.22 nM | IC50 [36]: 50.8 nM | IC50 [37]: 8.68 nM | IC50 [38]: 42.5 nM | IC50 [39]: 10.1 nM | IC50 [40]: 7.99 nM | IC50 [41]: > 64 nM | IC50 ([42]; read-out: IC50): 12 nM | IC50 [43]: 15.5 nM | IC50 [44]: > 64 nM | IC50 [45]: > 64 nM | IC50 [46]: 6.38 nM | IC50 [47]: 2.9 nM | IC50 [48]: 1.33 nM | IC50 [49]: 30.4 nM | IC50 [50]: 5.39 nM | IC50 [51]: 8.18 nM | IC50 [52]: > 64 nM | IC50 [53]: 3.62 nM | IC50 [54]: > 64 nM

CC(=O)O[C@@]12CO[C@@H]1C[C@H](O)[C@@]1(C)C(=O)[C@H](O)C3=C(C)[C@@H](OC(=O)[C@H](O)[C@@H](NC(=O)OC(C)(C)C)c4ccccc4)C[C@@](O)([C@@H](OC(=O)c4ccccc4)[C@H]21)C3(C)C [DOCETAXEL]
IC50 [1]: 9.88 nM | IC50 [2]: 1.73 nM | IC50 [3]: 9.17 nM | IC50 [4]: > 10 nM | IC50 [5]: 8.6 nM | IC50 [6]: > 10 nM | IC50 [7]: 0.416 nM | IC50 [8]: 5.11 nM | IC50 [9]: 1.8 nM | IC50 [10]: 6.56 nM | IC50 [11]: 2.47 nM | IC50 [12]: 0.782 nM | IC50 [13]: 6.79 nM | IC50 [14]: > 10 nM | IC50 [15]: 2.33 nM | IC50 [16]: > 10 nM | IC50 [17]: 2.47 nM | IC50 [18]: > 10 nM | IC50 [19]: > 10 nM | IC50 [20]: 1.24 nM | IC50 [21]: 3.76 nM | IC50 [22]: 5.31 nM | IC50 [23]: > 10 nM | IC50 [24]: 1.44 nM | IC50 [25]: 1.16 nM | IC50 [26]: 4.51 nM | IC50 [27]: 6.16 nM | IC50 [28]: > 10 nM | IC50 [29]: 5.86 nM | IC50 [30]: 1.74 nM | IC50 [31]: > 10 nM | IC50 [32]: > 10 nM | IC50 [33]: 6.01 nM | IC50 [34]: 3.42 nM | IC50 [35]: 7.48 nM | IC50 [36]: 2.86 nM | IC50 [37]: 1.76 nM | IC50 [38]: > 10 nM | IC50 [39]: > 10 nM | IC50 [40]: > 10 nM | IC50 [41]: 8.18 nM | IC50 [42]: > 10 nM | IC50 [43]: 3.22 nM | IC50 [44]: > 10 nM | IC50 [45]: 2.76 nM | IC50 [46]: 3.35 nM | IC50 [47]: > 10 nM | IC50 [48]: 6.44 nM | IC50 [49]: 5.3 nM | IC50 [50]: 1.83 nM | IC50 [51]: 0.185 nM | IC50 [52]: > 10 nM | IC50 [53]: 2.54 nM | IC50 [54]: > 10 nM
